Results reported in the OPERA property sets (Mansouri et al. 2018).

Settings: not given
In the case of COCC(C)OCC(C)OCC(C)O (configuration not stated), the boiling point is reported as 250 °C and the log10 vapour pressure (mmHg) is reported as -1.7. Molecule CCOC(=O)c1cccc(C(=O)OCC)c1 has a boiling point of 302 °C and a melting point of 11.5 °C. Cc1cnc(Cl)nc1Cl gave a boiling point of 235 °C and a melting point of 26 °C. Work on N=CNO yielded a melting point of 114 °C. CCCCCCCC(=O)OC showed a boiling point of 193 °C, a log10 Henry constant (atm·m³/mol) of -3.11 and a log10 vapour pressure (mmHg) of -0.267. For the same molecule, the melting point was -40 °C and the ready biodegradability was “not readily biodegradable”. In the case of Clc1ccc(C2(Cn3cncn3)CC(Br)CO2)c(Cl)c1 (configuration not stated), the log10 vapour pressure (mmHg) is reported as -7.52 and the melting point is reported as 84 °C. For COc1ccc(S)cc1, the boiling point was 228 °C. In the case of Clc1ccc(Oc2cccc(Cl)c2)cc1, the log10 vapour pressure (mmHg) is reported as -3.19. In the case of CC(C)(C)c1cc(-n2nc3ccc(Cl)cc3n2)c(O)c(C(C)(C)C)c1, the ready biodegradability is reported as “not readily biodegradable”. Molecule CCCCCSSCCCCC has a log10 vapour pressure (mmHg) of -2.2. In the case of Cc1ccc(C)c([N+](=O)[O-])c1, the boiling point is reported as 240 °C and the melting point is reported as -25 °C. OCC1CCC(CO)O1 (configuration not stated) showed a boiling point of 265 °C. With CCOC(CN(CC)CC)OCC the boiling point was 194 °C. In the case of CCC=C(C)C, the boiling point is reported as 67.3 °C, the log10 vapour pressure (mmHg) is reported as 2.2 and the melting point is reported as -135 °C. Work on CCCCCCCCCCCCCC(CCCCCCCCCC)CCCCCCCCCC yielded a melting point of 10.8 °C. Cc1ccc(/C(=C\CN2CCCC2)c2ccccn2)cc1 gave a melting point of 60 °C. CCCCC(C)c1ccccc1 (configuration not stated) showed a boiling point of 208 °C. Molecule C=CC(F)(Cl)C(F)(F)Br (configuration not stated) has a boiling point of 99.5 °C. Molecule Cn1c(=S)sc2ccccc21 has a boiling point of 335 °C and a melting point of 90 °C. For C=C[C@@H]1C2=CCOC(=O)C2=CO[C@H]1O[C@@H]1O[C@H](CO)[C@@H](O)[C@H](O)[C@H]1O, the melting point was 191 °C. For C=CC(C)=O, the boiling point was 81.4 °C, the log10 Henry constant (atm·m³/mol) was -4.33 and the ready biodegradability was “not readily biodegradable”. For O=S(=O)(CCl)c1ccccc1, the melting point was 54 °C. O=c1[nH]c2ccccc2n1C1CCN(CCCC(c2ccc(F)cc2)c2ccc(F)cc2)CC1 showed a melting point of 216 °C. For CCCCC(O)(Cn1cncn1)c1ccc(Cl)cc1Cl (configuration not stated), the log10 vapour pressure (mmHg) was -6.87 and the melting point was 111 °C. CC(C)(CCC(=O)O)C(=O)O showed a melting point of 84 °C. With O=C(O)CC(Br)C(=O)O (configuration not stated) the melting point was 161 °C. Molecule c1ccc(SSc2ccccc2)cc1 has a boiling point of 310 °C, a log10 vapour pressure (mmHg) of -3.66 and a melting point of 62 °C. With O=C(O)CC(S)C(=O)O (configuration not stated) the melting point was 149 °C. Work on O=C(Cl)c1ccccc1F yielded a boiling point of 206 °C and a melting point of 4 °C. Molecule CC(=O)CC(C)C(C)=O (configuration not stated) has a boiling point of 196 °C. Molecule C=CCCCl has a boiling point of 75 °C. In the case of Cc1ccc(CO)c(C)c1, the boiling point is reported as 232 °C and the melting point is reported as 22 °C. In the case of C#CCl, the boiling point is reported as -30 °C and the melting point is reported as -126 °C. COP(=O)(OC)C(O)C(Cl)(Cl)Cl (configuration not stated) showed a log10 Koc (L/kg) of 1.9, a log10 vapour pressure (mmHg) of -5.11 and a melting point of 77 °C. The ready biodegradability was “not readily biodegradable”. Work on O=C(O)CCCCCCCCCCBr yielded a melting point of 57 °C. In the case of CCCCCCCCCCCCCCCC/C=C/C1CC(=O)OC1=O (configuration not stated), the ready biodegradability is reported as “not readily biodegradable”. With O=C(O)c1cnccn1 the ready biodegradability was “readily biodegradable”. With C[Si]1(C)N[Si](C)(C)N[Si](C)(C)N1 the boiling point was 188 °C and the melting point was -10 °C. Cc1c(F)c(F)c(F)c(F)c1F gave a boiling point of 118 °C and a melting point of -29.8 °C. Work on C=C[C@](C)(O)CC[C@@H]1[C@@]2(C)CCCC(C)(C)[C@@H]2CC[C@@]1(C)O yielded a melting point of 97 °C. In the case of CN(C)c1ccc(C(=O)c2ccccc2)cc1, the melting point is reported as 92.5 °C. CCCCCCCCCCCCCl showed a boiling point of 260 °C, a log10 vapour pressure (mmHg) of -2.2 and a melting point of -9.3 °C. For the same molecule, the ready biodegradability was “readily biodegradable”. With BrC=CBr the boiling point was 110 °C, the log10 Koc (L/kg) was 1.65 and the log10 vapour pressure (mmHg) was 1.49. The melting point was -37.5 °C and the ready biodegradability was “not readily biodegradable”. In the case of O=C(O)c1ccc(O)c(C(=O)O)c1, the melting point is reported as 310 °C. Work on CCOP(=S)(OCC)Oc1ccc(S(C)(=O)=O)cc1 yielded a log10 Koc (L/kg) of 2.17. For COc1ccc2c3c1O[C@H]1C(=O)CC[C@@]4(O)[C@@H](C2)N(C)CC[C@]314, the melting point was 219 °C. CCOC(=O)NC(N)=O gave a melting point of 196 °C. Molecule FC(F)(F)CS has a boiling point of 34.5 °C. For Cc1ccc2c(c1[N+](=O)[O-])C(=O)c1ccccc1C2=O, the melting point was 270 °C. Molecule OC(Cn1cncn1)(c1ccc(F)cc1)c1ccccc1F (configuration not stated) has a log10 Koc (L/kg) of 1.88, a log10 vapour pressure (mmHg) of -10.3 and a melting point of 130 °C. Work on CN1CCN(C(c2ccccc2)c2ccccc2)CC1 yielded a melting point of 106 °C. CC(=O)Nc1cc(NS(=O)(=O)C(F)(F)F)c(C)cc1C showed a log10 Koc (L/kg) of 2.3 and a melting point of 184 °C. Work on C[Si](C)(Cl)CBr yielded a boiling point of 131 °C. CC(=O)OC(C)OC(C)=O gave a boiling point of 169 °C and a melting point of 18.9 °C. CN(C)N showed a boiling point of 63.9 °C, a log10 vapour pressure (mmHg) of 2.21 and a melting point of -58 °C. For the same molecule, the ready biodegradability was “not readily biodegradable”. With O=C(c1ccc(O)cc1O)c1ccc(O)cc1O the melting point was 202 °C. Work on CC=CC(C)C(=O)O (configuration not stated) yielded a boiling point of 199 °C.

Same assay, conditions: fish
In the case of CCCCCCCCCCCC(=O)O, the log10 BCF is reported as 2.4. Work on C=C[C@@]1(C)C=C2CC[C@@H]3[C@](C)(CCC[C@@]3(C)C(=O)O)[C@H]2CC1 yielded a log10 BCF of 1.92. C=C(Cl)Cl gave a log10 BCF of 1.11 and a log10 biotransformation half-life (days) of -0.72. S=C(SSSSC(=S)N1CCCCC1)N1CCCCC1 showed a log10 BCF of 1.23. CCN(CC)C(=O)SCc1ccc(Cl)cc1 showed a log10 BCF of 2.23 and a log10 biotransformation half-life (days) of 0.66. O=[N+]([O-])c1ccc(Cl)c(Cl)c1 showed a log10 BCF of 1.71 and a log10 biotransformation half-life (days) of -0.27. For Clc1ccc(Oc2ccc(Cl)cc2Cl)c(Cl)c1, the log10 biotransformation half-life (days) was 2.28. In the case of CC(Cl)CCl (configuration not stated), the log10 BCF is reported as 0.85 and the log10 biotransformation half-life (days) is reported as -1.06. BrCC(CBr)(CBr)CBr showed a log10 BCF of 1.94 and a log10 biotransformation half-life (days) of 0.76. CC(C)(C)c1cc(-n2nc3ccc(Cl)cc3n2)c(O)c(C(C)(C)C)c1 gave a log10 BCF of 3.57 and a log10 biotransformation half-life (days) of 0.72.
